This is an account of results in paper PMC4937797 (Antiviral research, 2016).

Converted amounts (≈) assume the structure as drawn. “Also recorded” adds a separate entry of the source. Like-named read-outs stand apart in the source and are kept apart here. Where only a bound is given, the exact number is not on record here.

One data set in a line: LogD. The format is physicochemical.
The nature of another data set: Aqueous solubility. The format is physicochemical.
For a further data set, the system named is RSV B Washington. The format is cell-based, Respiratory syncytial virus. The note with it: read-out: RSV B EC50, Hep2 cells, CPE assay.
A further data set in a line: Plasma protein binding. It counts as in vitro ADME.
Data set [1] deals with subgenomic RSV replicon. It counts as cell-based, Respiratory syncytial virus. The note with it: for EC50: read-out: Replicon EC50, APC126-E RSV replicon cells, 48 hours, luminescence; for activity in the primary screen (RSV replicon), in words: 10 μM, HTS data. (In antiviral work, replicon cells carry a viral genome segment that copies itself.)
For the next data set, the system named is RSV A Long. It counts as cell-based, Respiratory syncytial virus. The note with it: read-out: RSV Long EC50; Hep2 cells, CPE assay.
For data set [2], the system named is RSV L mutant (Y1631H in L polymerase). The format is cell-based, Respiratory syncytial virus. The note with it: for EC50: read-out: L Mutant EC50.
Another data set is described as follows: Hepatic clearance. It counts as in vitro ADME.
The target in another data set is hERG channel (Homo sapiens, UniProt Q12809). Kind of data set: hERG channel inhibition. The format is biochemical.
hERG channel, sequence (Q12809 whole entry): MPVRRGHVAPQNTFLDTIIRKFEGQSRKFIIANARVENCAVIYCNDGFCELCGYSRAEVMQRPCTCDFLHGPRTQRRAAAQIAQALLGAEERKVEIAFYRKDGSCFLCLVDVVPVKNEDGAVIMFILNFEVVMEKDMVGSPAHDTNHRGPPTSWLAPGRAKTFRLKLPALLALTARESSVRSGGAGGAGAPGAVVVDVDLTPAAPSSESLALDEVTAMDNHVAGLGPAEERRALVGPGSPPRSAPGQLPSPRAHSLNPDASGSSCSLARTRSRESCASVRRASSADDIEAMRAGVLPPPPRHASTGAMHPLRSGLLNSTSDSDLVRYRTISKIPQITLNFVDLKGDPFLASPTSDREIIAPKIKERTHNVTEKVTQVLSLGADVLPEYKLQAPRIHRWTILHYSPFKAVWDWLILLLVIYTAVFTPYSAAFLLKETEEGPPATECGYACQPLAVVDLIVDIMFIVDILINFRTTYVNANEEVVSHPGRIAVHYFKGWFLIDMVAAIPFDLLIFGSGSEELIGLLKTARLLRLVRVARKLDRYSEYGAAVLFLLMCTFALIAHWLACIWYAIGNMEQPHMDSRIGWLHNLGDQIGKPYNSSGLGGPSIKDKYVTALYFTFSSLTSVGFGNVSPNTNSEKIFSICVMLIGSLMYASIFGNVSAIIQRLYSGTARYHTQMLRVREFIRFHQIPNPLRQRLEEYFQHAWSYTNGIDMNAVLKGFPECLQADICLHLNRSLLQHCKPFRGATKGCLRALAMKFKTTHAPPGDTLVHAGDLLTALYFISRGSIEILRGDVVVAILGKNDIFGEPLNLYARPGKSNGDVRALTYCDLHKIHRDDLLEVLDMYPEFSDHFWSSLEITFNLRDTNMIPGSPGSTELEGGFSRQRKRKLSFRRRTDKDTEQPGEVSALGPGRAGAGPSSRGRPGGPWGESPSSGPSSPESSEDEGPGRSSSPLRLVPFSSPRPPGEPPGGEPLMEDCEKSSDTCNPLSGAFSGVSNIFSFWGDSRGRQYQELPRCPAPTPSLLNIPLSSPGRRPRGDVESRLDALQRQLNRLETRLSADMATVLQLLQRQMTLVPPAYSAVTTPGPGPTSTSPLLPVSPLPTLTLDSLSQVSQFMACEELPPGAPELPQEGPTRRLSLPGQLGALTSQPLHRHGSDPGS
In data set [3] the test system is RSV N mutant (nucleoprotein mutations). The format is cell-based, Respiratory syncytial virus. Particulars: for EC50: read-out: N Mutant EC50, CPE assay, RSV604-resistant N mutant virus.
For data set [4], the target named is RSV polymerase (L/P complex) (Human respiratory syncytial virus A, UniProt P28887). Kind of data set: In vitro RNA synthesis assay with purified L/P complex. The format is biochemical.
RSV polymerase (L/P complex), sequence (P03421 whole entry): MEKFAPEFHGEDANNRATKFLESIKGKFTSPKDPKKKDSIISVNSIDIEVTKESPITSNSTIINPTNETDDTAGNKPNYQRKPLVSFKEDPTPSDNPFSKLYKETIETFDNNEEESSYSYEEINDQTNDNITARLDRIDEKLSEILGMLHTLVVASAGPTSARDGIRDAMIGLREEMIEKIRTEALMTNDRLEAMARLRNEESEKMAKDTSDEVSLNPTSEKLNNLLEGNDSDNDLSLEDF
RSV polymerase (L/P complex), sequence (P28887 whole entry): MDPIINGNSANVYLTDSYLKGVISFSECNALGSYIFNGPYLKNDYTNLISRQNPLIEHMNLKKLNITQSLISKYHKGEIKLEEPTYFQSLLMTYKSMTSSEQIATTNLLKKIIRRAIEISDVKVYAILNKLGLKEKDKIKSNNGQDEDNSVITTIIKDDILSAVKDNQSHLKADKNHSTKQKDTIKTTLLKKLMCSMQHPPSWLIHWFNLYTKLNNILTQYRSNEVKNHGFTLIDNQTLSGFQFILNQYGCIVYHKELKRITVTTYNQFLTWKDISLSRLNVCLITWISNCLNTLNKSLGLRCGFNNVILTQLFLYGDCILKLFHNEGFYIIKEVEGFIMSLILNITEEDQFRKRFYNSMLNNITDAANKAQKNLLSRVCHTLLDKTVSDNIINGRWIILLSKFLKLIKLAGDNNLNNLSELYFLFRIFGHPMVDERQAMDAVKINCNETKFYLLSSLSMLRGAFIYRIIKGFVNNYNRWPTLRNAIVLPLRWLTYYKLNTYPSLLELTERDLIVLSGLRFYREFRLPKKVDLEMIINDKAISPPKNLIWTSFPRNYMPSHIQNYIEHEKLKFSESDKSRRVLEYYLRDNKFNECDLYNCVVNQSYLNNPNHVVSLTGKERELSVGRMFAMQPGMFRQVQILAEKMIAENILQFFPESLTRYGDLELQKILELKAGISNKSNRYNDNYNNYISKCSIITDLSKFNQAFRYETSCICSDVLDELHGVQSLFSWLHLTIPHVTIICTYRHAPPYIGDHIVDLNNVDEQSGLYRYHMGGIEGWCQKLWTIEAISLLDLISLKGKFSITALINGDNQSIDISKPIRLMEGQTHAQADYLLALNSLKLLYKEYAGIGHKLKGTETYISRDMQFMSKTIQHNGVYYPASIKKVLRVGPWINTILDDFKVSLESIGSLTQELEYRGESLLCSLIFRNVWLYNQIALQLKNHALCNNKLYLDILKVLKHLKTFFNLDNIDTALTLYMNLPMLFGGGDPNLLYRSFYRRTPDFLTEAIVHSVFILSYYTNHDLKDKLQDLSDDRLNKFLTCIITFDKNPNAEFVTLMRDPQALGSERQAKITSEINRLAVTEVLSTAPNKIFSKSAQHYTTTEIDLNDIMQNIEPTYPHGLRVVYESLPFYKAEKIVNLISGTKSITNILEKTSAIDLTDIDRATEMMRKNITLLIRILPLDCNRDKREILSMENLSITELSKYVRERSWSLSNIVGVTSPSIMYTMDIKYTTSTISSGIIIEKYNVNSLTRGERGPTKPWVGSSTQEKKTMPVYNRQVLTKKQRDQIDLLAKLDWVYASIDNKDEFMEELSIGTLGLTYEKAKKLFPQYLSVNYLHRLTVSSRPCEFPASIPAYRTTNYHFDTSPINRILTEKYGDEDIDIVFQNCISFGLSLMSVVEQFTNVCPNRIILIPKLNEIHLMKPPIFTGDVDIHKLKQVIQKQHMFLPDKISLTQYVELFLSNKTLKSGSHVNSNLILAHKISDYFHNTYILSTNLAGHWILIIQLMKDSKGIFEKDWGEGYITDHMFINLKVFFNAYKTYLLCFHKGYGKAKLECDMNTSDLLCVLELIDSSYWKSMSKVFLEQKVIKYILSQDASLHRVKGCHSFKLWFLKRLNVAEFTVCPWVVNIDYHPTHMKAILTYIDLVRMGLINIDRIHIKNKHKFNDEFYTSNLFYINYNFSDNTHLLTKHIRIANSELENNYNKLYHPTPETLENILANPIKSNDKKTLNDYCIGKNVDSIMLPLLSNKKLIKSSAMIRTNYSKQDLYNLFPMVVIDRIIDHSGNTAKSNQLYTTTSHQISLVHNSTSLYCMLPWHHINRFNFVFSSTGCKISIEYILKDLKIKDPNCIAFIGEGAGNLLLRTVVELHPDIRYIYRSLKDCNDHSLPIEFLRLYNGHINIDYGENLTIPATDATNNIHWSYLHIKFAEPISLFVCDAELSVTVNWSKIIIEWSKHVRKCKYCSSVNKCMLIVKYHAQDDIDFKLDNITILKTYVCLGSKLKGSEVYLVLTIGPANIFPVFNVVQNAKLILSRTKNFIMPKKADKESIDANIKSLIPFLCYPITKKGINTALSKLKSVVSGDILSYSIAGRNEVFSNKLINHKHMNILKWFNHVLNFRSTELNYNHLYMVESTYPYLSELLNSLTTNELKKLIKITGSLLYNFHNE
Another data set is described as follows: Microsomal stability. The format is in vitro ADME. Particulars: human liver microsomes. (Liver microsomes are vesicles of endoplasmic reticulum, rich in cytochrome P450 enzymes.)
Data set [5] relates to subgenomic RSV replicon. Particulars: read-out: Replicon EC50; assay validation; ref Tiong-Yip et al (2014); cited from earlier work.

The LogD is the decadic logarithm of the distribution of all forms, ionised or not, between an organic phase and buffer at a given pH. Read a low LogD as a more hydrophilic compound. By Solubility is commonly meant how much of the substance goes into solution per volume. A high value points to much dissolved substance. The EC50 is the concentration that produces a half-maximal response. Take `COc1cc(CN2CC3(CCN(S(=O)(=O)c4cn(C)cn4)CC3)c3c(n(C)c4cc(OC)ccc34)[C@H]2CO)cc(OC)c1` [BRD3482]: the LogD in “LogD” was found to be 2.9. In “Aqueous solubility”, this molecule yielded a Solubility of 22 µM (≈ 13.4 µg/mL). Besides, the EC50 in the data set with RSV B Washington came out at 4.7 µM; with subgenomic RSV replicon [1], 7.2 µM; with RSV A Long, 1 µM. In addition, the “PPB (% free)” value in the data set “Plasma protein binding” worked out at 3.8 % free.
Take `Cc1cccc(-c2ccc([C@@H]3[C@@H](CO)N4CCCCN(S(=O)(=O)c5cn(C)cn5)C[C@@H]34)cc2)c1` [BRD3969]: the “L Mutant fold shift” value in data set [2] is recorded as > 25 μM (>6x). Further, the “shift in activity against the L-mutant strain” value (shortened to “shift in activity”) in [2] was “greater than 6 fold”. The EC50 in data set [2] is above 25 µM; in the data set with RSV B Washington it was above 50 µM; in [3] it was 6.9 µM; in the data set on subgenomic RSV replicon [1] it was 4.2 µM; in the data set with RSV A Long, 3.9 µM. Further, in “LogD”, the log distribution coefficient (LogD) came out at 3.6. In the data set “Hepatic clearance”, the Rhep is recorded as 61.7 μL/min/10^6 cells. The molecule also returned a Solubility in the data set “Aqueous solubility” of 49 µM (≈ 23.6 µg/mL). On hERG channel, the “hERG (% inh at 11 μM)” value turned out to be 14%. In addition, in “Plasma protein binding”, the “PPB (% free)” value is reported as 1.6 % free. Besides, the “effect on T7 RNA polymerase (input minigenome template)” value in the data set with T7 RNA polymerase is on record as “inhibited T7 RNA polymerase”. In addition, the “N Mutant fold shift” value in [3] is on record as 6.9 μM (1.8x). Further, in the data set on subgenomic RSV replicon [1], the “activity in the primary screen (RSV replicon), in words” value was “weak but significant activity”. The “effect on RSV RNA synthesis initiation or elongation in vitro” value in data set [4] (1000 μM, data not shown) is reported as “no effect”. In data set [4] (concentrations up to 100 μM, 30 °C, 2 h), the “effect on in vitro RNA synthesis (de novo synthesis, back-priming)” value is “does not inhibit the ability of the polymerase to synthesize RNA; also recorded: no discernible effect”. The molecule also returned an HLM in the data set “Microsomal stability” of 77.9 µL/min/mg.
As for `CN1c2ccc(-c3ccc(C#N)cc3)cc2[C@H]2[C@H](CCN2C(=O)c2cccc(F)c2)[C@@H]1CO` [BRD4517], the values for the EC50 in the data set with RSV B Washington, in the data set on subgenomic RSV replicon [1] and with RSV A Long were 5.5 µM, 10.6 µM and 1.6 µM, respectively.
With `COc1ccc2c3c([nH]c2c1)[C@H](CO)N(Cc1ccccc1)CC31CCN(C(=O)Cc2ccccc2)CC1` [BRD5449], the LogD in the data set “LogD” is given as above 4.4. Further, the Rhep in the data set “Hepatic clearance” is given as 194 μL/min/10^6 cells. In the data set “Aqueous solubility”, this molecule registered a Solubility of 16 µM (≈ 8.15 µg/mL). For the same molecule, the EC50 in the data set on RSV B Washington is above 50 µM; in the data set with subgenomic RSV replicon [1], 4.9 µM; with RSV A Long, 6.8 µM. In the data set “Plasma protein binding”, the “PPB (% free)” value is listed as below 1 % free. The molecule also returned an HLM in the data set “Microsomal stability” of 465 µL/min/mg.
In the case of `O=S(=O)(c1cccs1)N1CCCCN2[C@H](CO)[C@@H](c3ccc(/C=C/c4ccccc4)cc3)[C@@H]2C1` [BRD9101], the “shift in activity” value in data set [2] is on record as “greater than 15 fold”. Further, the EC50 in [2] is above 25 µM; in the data set with RSV B Washington, above 50 µM; in data set [3] it was 7.8 µM; in the data set on subgenomic RSV replicon [1] it was 4.3 µM; in the data set on RSV A Long, 1.7 µM. The LogD in “LogD” is reported as above 4.8. In the data set “Hepatic clearance”, this molecule came in with a Rhep of 67.8 μL/min/10^6 cells. Further, in “Aqueous solubility”, the Solubility was below 1 µM. For the same molecule, in “Plasma protein binding”, the “PPB (% free)” value is on record as below 1 % free. In data set [3] (shift versus RSV A2 EC50), the “N Mutant fold shift” value stood at 4.6 x. The “% inhibition of the RSV replicon in the primary screen” value in the data set with subgenomic RSV replicon [1] (10 uM, single concentration HTS) is 70%. Moreover, in “Microsomal stability”, the HLM was 57.1 µL/min/mg.
For the molecule `Cn1cnc(S(=O)(=O)N2CCCCN3[C@H](CO)[C@@H](c4ccc(-c5ccc(F)cc5)cc4)[C@@H]3C2)c1` [BRD65768], the “shift in activity” value in data set [2] is listed as above 3 fold. Also, the EC50 in [2] was above 25 µM; with RSV B Washington it was above 50 µM; in [3], 13.1 µM; in the data set with subgenomic RSV replicon [1], 4.3 µM; in the data set on RSV A Long, 7.5 µM. Also, in data set [2] (shift versus RSV A2 EC50), the “L Mutant fold shift” value is above 4 x. Besides, in the data set “LogD”, the LogD was 3.3. In the data set “Hepatic clearance”, this molecule came in with a Rhep of 23.6 μL/min/10^6 cells. The molecule also gave a Solubility in the data set “Aqueous solubility” of 121 µM (≈ 58.6 µg/mL). The “hERG (% inh at 11 μM)” value on hERG channel amounted to 18%. Besides, the “PPB (% free)” value in “Plasma protein binding” came to 2.1 % free. In addition, the “N Mutant fold shift” value in data set [3] (shift versus RSV A2 EC50) was 2 x. The “activity in the primary screen (RSV replicon), in words” value with subgenomic RSV replicon [1] was “weak but significant activity”. Moreover, the HLM in the data set “Microsomal stability” was 41.2 µL/min/mg.
`O=C(NC1CC1)c1cc2c(s1)-c1ccccc1N(C(=O)c1ccc(NC(=O)c3ccccc3-c3ccccc3)cc1)CC2` [YM53403]: the EC50 in the data set with subgenomic RSV replicon [5] was 0.63 µM.
For `NC(=O)c1ncn([C@@H]2O[C@H](CO)[C@@H](O)[C@H]2O)n1` [ribavirin], the EC50 with subgenomic RSV replicon [5] is 6.28 µM.
